# Measurements: ChEMBL document CHEMBL1649413, “Structure-activity relationship of 4(5)-aryl-2-amino-1H-imidazoles, N1-substituted 2-aminoimidazoles and imidazo[1,2-a]pyrimidinium salts as inhibitors of biofilm formation by Salmonella typhimurium and Pseudomonas aeruginosa” (J Med Chem, 2011)
# Active and inactive are the calls of the source. The calls are words filed in the database; no cut-off is given here.
# Columns and labels:
# Pseudomonas aeruginosa [1] = assay: Antibiofilm activity in Pseudomonas aeruginosa assessed as inhibition of biofilm formation at 25 degC after 24 hrs; assay type: functional, organism-based
# Salmonella typhimurium [2] = assay: Antibiofilm activity in Salmonella Typhimurium ATCC 14028 assessed as inhibition of biofilm formation at 25 degC after 24 hrs; assay type: functional, organism-based, Salmonella enterica subsp. enterica serovar Typhimurium; settings: Salmonella enterica, ATCC 14028, 24 h
# Salmonella typhimurium [3] = assay: Antimicrobial activity against Salmonella Typhimurium ATCC 14028 assessed as inhibition of planktonic growth at 10 uM at 25 degC after 24 hrs; assay type: functional, organism-based; settings: Salmonella enterica subsp. enterica serovar Typhimurium
# Salmonella typhimurium [4] = assay: Antimicrobial activity against Salmonella Typhimurium ATCC 14028 assessed as inhibition of planktonic growth at 20 uM at 25 degC after 24 hrs; assay type: functional, organism-based; settings: Salmonella enterica subsp. enterica serovar Typhimurium
# Salmonella typhimurium [5] = assay: Antimicrobial activity against Salmonella Typhimurium ATCC 14028 assessed as inhibition of planktonic growth at 40 uM at 25 degC after 24 hrs; assay type: functional, organism-based; settings: Salmonella enterica subsp. enterica serovar Typhimurium
# Pseudomonas aeruginosa [6] = assay: Antimicrobial activity against Pseudomonas aeruginosa assessed as inhibition of planktonic growth at 40 uM at 25 degC after 24 hrs; assay type: functional, organism-based
# Pseudomonas aeruginosa [7] = assay: Antimicrobial activity against Pseudomonas aeruginosa assessed as inhibition of planktonic growth at 20 uM at 25 degC after 24 hrs; assay type: functional, organism-based
# Salmonella typhimurium [8] = assay: Antimicrobial activity against Salmonella Typhimurium ATCC 14028 assessed as inhibition of planktonic growth at 400 uM at 25 degC after 24 hrs; assay type: functional, organism-based; settings: Salmonella enterica subsp. enterica serovar Typhimurium
IC50 (Pseudomonas aeruginosa [1]),IC50 (Salmonella typhimurium [2]),Structure (SMILES),inhibition (Salmonella typhimurium [8]),further results
373 µM,114 µM,CCCCn1c(-c2ccc([N+](=O)[O-])cc2)cnc1N,,
69.7 µM,12.6 µM,Nc1ncc(-c2ccc(-c3ccccc3)cc2)n1C1CCCCC1,,inhibition (Salmonella typhimurium [3]): inactive; inhibition (Salmonella typhimurium [4]): Active; inhibition (Salmonella typhimurium [5]): Active
20.7 µM,206 µM,CCn1c(-c2ccccc2)cnc1N,,inhibition (Pseudomonas aeruginosa [6]): inactive; inhibition (Pseudomonas aeruginosa [7]): inactive
,77.1 µM,COc1ccc(-c2[nH]c(N)nc2-c2ccccc2)cc1,,
19.1 µM,39.7 µM,CCCCCCn1c(-c2ccccc2)cnc1N,,inhibition (Pseudomonas aeruginosa [6]): inactive; inhibition (Pseudomonas aeruginosa [7]): inactive
18.5 µM,11.9 µM,CCCCCCCCn1c(-c2ccccc2)cnc1N,,inhibition (Pseudomonas aeruginosa [6]): inactive; inhibition (Salmonella typhimurium [3]): inactive; inhibition (Salmonella typhimurium [4]): Active; inhibition (Pseudomonas aeruginosa [7]): inactive
18.7 µM,16.2 µM,CCCCn1c(-c2ccc(Br)cc2)cnc1N,,
> 800 µM,116 µM,CCCCCCCCn1c(-c2ccc(-c3ccc([N+](=O)[O-])cc3)cc2)cnc1N,,
> 800 µM,> 800 µM,Nc1ncc(-c2ccc(-c3ccccc3)cc2)n1C1CCCCCCCCCCC1,,
95.2 µM,432 µM,Cn1c(-c2ccccc2)cnc1N,,
55.7 µM,56.2 µM,CCCCn1c(-c2ccc(F)cc2)cnc1N,,
31.7 µM,62.3 µM,Cc1ccc(-c2cnc(N)n2C)cc1,,
60.5 µM,126 µM,CCn1c(-c2ccc(Br)cc2)cnc1N,,
> 800 µM,850 µM,CCCCCCCCn1c(-c2ccc(-c3ccc(-c4ccccc4)cc3)cc2)cnc1N,,
24.5 µM,26.3 µM,Nc1ncc(-c2ccc(-c3ccccc3)cc2)n1C1CCC1,,
> 400 µM,> 800 µM,CCCCCCCCCCCCCCn1c(-c2ccc(-c3ccccc3)cc2)cnc1N,,
16.7 µM,57.8 µM,CCCCn1c(-c2ccc(Cl)cc2)cnc1N,,inhibition (Pseudomonas aeruginosa [6]): inactive; inhibition (Pseudomonas aeruginosa [7]): inactive

IC50 (Pseudomonas aeruginosa [1]),IC50 (Salmonella typhimurium [2]),Structure (SMILES),inhibition (Salmonella typhimurium [8]),further results
57.8 µM,74.2 µM,Nc1ncc(-c2ccc(Br)cc2)n1Cc1ccccc1,,
32.1 µM,12.1 µM,CCCCCCn1c(-c2ccc(-c3ccccc3)cc2)cnc1N,,inhibition (Salmonella typhimurium [3]): Active; inhibition (Salmonella typhimurium [4]): Active
126 µM,286 µM,CCn1c(-c2ccc([N+](=O)[O-])cc2)cnc1N,,
26.1 µM,55.1 µM,Nc1ncc(-c2ccccc2)n1Cc1ccccc1,,
32 µM,37.3 µM,Nc1ncc(-c2ccc(F)cc2)n1Cc1ccccc1,,
1.2 µM,8.5 µM,CCCCCCCCn1c(-c2ccc(OC)cc2)cnc1N,,inhibition (Salmonella typhimurium [3]): inactive; inhibition (Salmonella typhimurium [4]): Active; inhibition (Pseudomonas aeruginosa [7]): inactive
159 µM,156 µM,COc1ccc(Cn2c(-c3ccccc3)cnc2N)cc1OC,,
41.6 µM,21.1 µM,CCCCn1c(-c2ccc(-c3ccccc3)cc2)cnc1N,,inhibition (Salmonella typhimurium [4]): Active; inhibition (Salmonella typhimurium [5]): Active
51.9 µM,185 µM,COc1ccc(CCn2c(-c3ccccc3)cnc2N)cc1OC,,
73.9 µM,9.2 µM,CCCCCn1c(-c2ccc(-c3ccccc3)cc2)cnc1N,,
67.8 µM,290 µM,CCn1c(-c2ccc(F)cc2)cnc1N,,
25.2 µM,9.3 µM,CCCCCCCn1c(-c2ccc(-c3ccccc3)cc2)cnc1N,,inhibition (Pseudomonas aeruginosa [6]): Active; inhibition (Salmonella typhimurium [3]): inactive; inhibition (Salmonella typhimurium [4]): Active; inhibition (Pseudomonas aeruginosa [7]): Active
40.6 µM,11.2 µM,CCCCCCCCn1c(-c2cccc(Br)c2)cnc1N,,inhibition (Pseudomonas aeruginosa [6]): Active; inhibition (Salmonella typhimurium [3]): inactive; inhibition (Salmonella typhimurium [4]): Active; inhibition (Pseudomonas aeruginosa [7]): inactive
> 400 µM,60.2 µM,CCCCCCCCCCCn1c(-c2ccc(-c3ccccc3)cc2)cnc1N,,
104 µM,97.3 µM,Nc1ncc(-c2ccccc2)n1Cc1ccc2c(c1)OCO2,,
14.8 µM,28.5 µM,Nc1ncc(-c2ccc(Cl)cc2)n1Cc1ccccc1,,

# The next lines start with the compound.
Structure (SMILES),IC50 (Pseudomonas aeruginosa [1]),IC50 (Salmonella typhimurium [2]),inhibition (Salmonella typhimurium [8]),further results
CC[n+]1c(-c2ccc([N+](=O)[O-])cc2)cn2cccnc21.[O-][Cl+3]([O-])([O-])[O-],> 800 µM,> 800 µM,,
CCCCCCCC[n+]1c(-c2ccc(S(C)(=O)=O)cc2)cn2cccnc21.[O-][Cl+3]([O-])([O-])[O-],49.6 µM,82 µM,,
Nc1nc(-c2ccccc2)c(-c2ccc(Cl)cc2)[nH]1,,46.9 µM,,
Nc1ncc(-c2ccccc2)n1C1CC1,35 µM,89.6 µM,,
CC(C)[n+]1c(-c2ccc([N+](=O)[O-])cc2)cn2cccnc21.[O-][Cl+3]([O-])([O-])[O-],> 800 µM,> 800 µM,,
Cc1ccc(-c2cnc(N)[nH]2)cc1,45.8 µM,77.7 µM,,
Brc1ccccc1Nc1ncccn1,,,inactive,
CCCC[n+]1c(-c2ccc([N+](=O)[O-])cc2)cn2cccnc21.[O-][Cl+3]([O-])([O-])[O-],> 800 µM,> 400 µM,,
CCCCCCCC[n+]1c(-c2cccc(Br)c2)cn2cccnc21.[O-][Cl+3]([O-])([O-])[O-],7 µM,7.3 µM,,inhibition (Pseudomonas aeruginosa [6]): Active; inhibition (Salmonella typhimurium [3]): inactive; inhibition (Salmonella typhimurium [4]): Active; inhibition (Pseudomonas aeruginosa [7]): inactive
Cn1c(-c2ccc([N+](=O)[O-])cc2)cnc1N,69.8 µM,162 µM,,
CCCCCCCCCCCCCCNc1ncccn1,,,inactive,
Nc1ncc(-c2ccc(Cl)cc2)n1C1CC1,13 µM,54.8 µM,,inhibition (Pseudomonas aeruginosa [7]): inactive
COc1ccc(CCNc2ncccn2)cc1,,,inactive,
c1cnc(NC2CCCCCCCCCCC2)nc1,,,inactive,
Cn1c(-c2ccc(C#N)cc2)cnc1N,331 µM,> 400 µM,,
c1ccc(Nc2ncccn2)cc1,,,inactive,
COc1cccc(Nc2ncccn2)c1,,,inactive,
CCCCCCCCCCNc1ncccn1,,,inactive,
Nc1ncc(-c2ccccc2)n1C1CCCC1,12.6 µM,70.7 µM,,inhibition (Pseudomonas aeruginosa [7]): inactive
c1cnc(NC2CC2)nc1,,,inactive,

Structure (SMILES),IC50 (Pseudomonas aeruginosa [1]),IC50 (Salmonella typhimurium [2]),inhibition (Salmonella typhimurium [8]),further results
Cc1cccc(Nc2ncccn2)c1,,,inactive,
CCCCCCCNc1ncccn1,,,inactive,
c1cnc(NC2CCCCC2)nc1,,,inactive,
CCCCCNc1ncccn1,,,inactive,
Cc1ccc(CNc2ncccn2)cc1,,,inactive,
Cc1ccc(CNc2ncccn2)c(C)c1,,,inactive,
CN(C)c1ncccn1,,,inactive,
Nc1nc(-c2ccc(Cl)cc2)c(-c2cc(F)cc(F)c2)[nH]1,,71.8 µM,,
O=[N+]([O-])c1ccc(-c2cn3cccnc3[n+]2Cc2ccccc2)cc1.[O-][Cl+3]([O-])([O-])[O-],> 800 µM,170 µM,,
Cn1c(-c2ccc(Cl)cc2)cnc1N,112 µM,108 µM,,
C=CCNc1ncccn1,,,inactive,
CCCCCCCCCCCCCNc1ncccn1,,,inactive,
N#Cc1ccc(-c2cnc(N)[nH]2)cc1,,316 µM,,
CCCCCCCCCCCCNc1ncccn1,,,inactive,
CCNc1ncccn1,,,inactive,
Cc1ccc(-c2cnc(N)n2C(C)C)cc1,240 µM,203 µM,,
CCCCCCCCCCCNc1ncccn1,,,inactive,
CS(=O)(=O)c1ccc(-c2cnc(N)[nH]2)cc1,> 800 µM,> 800 µM,,
CCCCCCCCCNc1ncccn1,,,inactive,
c1cnc(NC2CCCC2)nc1,,,inactive,

Structure (SMILES),IC50 (Pseudomonas aeruginosa [1]),IC50 (Salmonella typhimurium [2]),inhibition (Salmonella typhimurium [8]),further results
c1cnc(NC2CCCCCC2)nc1,,,inactive,
CCCNc1ncccn1,,,inactive,
CCCCNc1ncccn1,,,inactive,
c1cnc(NC2CCC2)nc1,,,inactive,
COc1ccc(-c2cnc(N)[nH]2)cc1,186 µM,120 µM,,
O=[N+]([O-])c1ccc(-c2cn3cccnc3[n+]2C2CCCCC2)cc1.[O-][Cl+3]([O-])([O-])[O-],250 µM,561 µM,,
C[n+]1c(-c2cccc([N+](=O)[O-])c2)cn2cccnc21.[O-][Cl+3]([O-])([O-])[O-],> 800 µM,427 µM,,
Nc1ncc(-c2ccc(Cl)cc2)n1C1CCCCCCCCCCC1,> 800 µM,120 µM,,
CC(C)(C)[Si](C)(C)Oc1ccc(CNc2ncccn2)cc1,,,inactive,
c1cnc(NCc2ccc3c(c2)OCO3)nc1,,,inactive,
Cc1ccc(-c2nc(N)n(-c3ccccc3)c2-c2ccc(Cl)cc2)cc1,> 800 µM,> 400 µM,,
CC(C)C[n+]1c(-c2ccc([N+](=O)[O-])cc2)cn2cccnc21.[O-][Cl+3]([O-])([O-])[O-],> 800 µM,405 µM,,
c1ccc(CNc2ncccn2)cc1,,,inactive,
CCCCCCCCCCCCCn1c(-c2ccc(Cl)cc2)cnc1N,33.9 µM,19.5 µM,,inhibition (Salmonella typhimurium [4]): inactive; inhibition (Salmonella typhimurium [5]): inactive
c1cnc(NC2CCCCCCC2)nc1,,,inactive,
CCCCCCNc1ncccn1,,,inactive,
CCCCCCCCNc1ncccn1,,,inactive,
CC(C)n1c(-c2ccc([N+](=O)[O-])cc2)cnc1N,> 800 µM,360 µM,,
C#CCN(C)c1ncccn1,,,inactive,
